In paper PMC5095863 (Chembiochem, 2016):
pIC50: −log10 of the molar value.

Columns and labels:
Assay type in all cases: biochemical
SIRT6 [1] = target: T1, SIRT6 (Homo sapiens, UniProt Q8N6T7); test: Evaluation of SIRT inhibitors and activators with SFP3, SIRT6
SIRT1 = target: T2, SIRT1 (Homo sapiens, UniProt Q96EB6); test: Evaluation of SIRT inhibitors and activators with SFP3, SIRT1; details: hydrolysis of 2.5 μM SFP3, 7 nM SIRT1, 500 μM NAD+, 37 °C, 60 min
T2 sequence (Q96EB6 1-747): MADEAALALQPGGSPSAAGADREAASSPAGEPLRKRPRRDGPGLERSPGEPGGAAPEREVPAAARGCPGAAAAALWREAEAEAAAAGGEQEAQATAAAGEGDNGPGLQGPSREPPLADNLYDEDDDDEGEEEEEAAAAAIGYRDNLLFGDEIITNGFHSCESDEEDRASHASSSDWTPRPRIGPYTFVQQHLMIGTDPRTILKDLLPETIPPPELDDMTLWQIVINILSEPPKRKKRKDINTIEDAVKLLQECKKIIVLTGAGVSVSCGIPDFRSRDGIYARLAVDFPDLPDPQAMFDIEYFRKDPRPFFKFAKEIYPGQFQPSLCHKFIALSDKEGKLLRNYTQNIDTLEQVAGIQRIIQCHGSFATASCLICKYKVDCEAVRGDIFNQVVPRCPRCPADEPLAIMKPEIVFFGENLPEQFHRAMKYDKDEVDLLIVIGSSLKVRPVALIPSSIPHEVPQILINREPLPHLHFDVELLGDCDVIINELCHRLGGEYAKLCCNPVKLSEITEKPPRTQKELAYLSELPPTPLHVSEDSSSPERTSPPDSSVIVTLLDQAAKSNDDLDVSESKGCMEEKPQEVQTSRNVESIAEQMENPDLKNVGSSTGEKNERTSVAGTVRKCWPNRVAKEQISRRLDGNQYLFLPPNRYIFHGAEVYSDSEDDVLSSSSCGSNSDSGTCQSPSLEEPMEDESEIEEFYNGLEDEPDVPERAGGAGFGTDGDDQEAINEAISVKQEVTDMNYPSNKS

SIRT6 [2] = target: T1, SIRT6; test: Fluorescence enhancement due to enzymatic reaction of SFP1-3 with SIRT6; details: 5 mM NAM, 48 nM SIRT6, 500 μM NAD, 37 °C

T1 sequence (Q8N6T7 whole entry): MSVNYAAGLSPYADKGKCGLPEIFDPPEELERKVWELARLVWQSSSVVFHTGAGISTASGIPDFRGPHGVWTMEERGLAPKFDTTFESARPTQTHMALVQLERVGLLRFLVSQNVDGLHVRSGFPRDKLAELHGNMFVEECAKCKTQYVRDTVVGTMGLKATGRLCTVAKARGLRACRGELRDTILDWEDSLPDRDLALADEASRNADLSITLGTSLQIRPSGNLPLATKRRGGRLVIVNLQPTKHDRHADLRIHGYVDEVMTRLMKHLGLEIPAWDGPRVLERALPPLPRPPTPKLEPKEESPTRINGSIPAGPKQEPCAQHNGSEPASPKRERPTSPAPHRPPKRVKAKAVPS

effect on SIRT6-dependent fluorescence increments of SFP2 and SFP3 (SIRT6 [2]) | pIC50 (SIRT6 [1]) | Compound | effect on SIRT6 activity (SIRT6 [1]; hydrolysis of 2.5 μM SFP3, 48 nM SIRT6, 500 μM NAD+, 37 °C, 60 min) | effect on SIRT1 activity (SIRT1)
– | – | O=c1c(O)c(-c2ccc(O)c(O)c2)oc2cc(O)cc(O)c12 [Quercetin, quercetin] | inhibition at lower concentration, but activation at higher concentration | inhibition at lower concentration, but activation at higher concentration
suppressed | – | NC(=O)c1cccnc1 [NAM, nicotinamide] | – | –
– | ~3.72 | Oc1ccc(/C=C/c2cc(O)cc(O)c2)cc1 [Resveratrol, resveratrol] | – | did not affect
